Experimental data published in US9469650B2, “Melampomagnolide B derivatives” (BOARD OF TRUSTEES OF THE UNIVERSITY OF ARKANSAS, priority 2013, dated 2016).

How the values were obtained:
CAKI-1 = test: panel of 60 human tumor cell lines, growth inhibition (Renal Cancer); conditions: CAKI-1
UACC-257 = test: panel of 60 human tumor cell lines, growth inhibition (Melanoma); conditions: UACC-257
HOP-62 = test: panel of 60 human tumor cell lines, growth inhibition (Non-Small Cell Lung Cancer); conditions: HOP-62
K-562 = test: panel of 60 human tumor cell lines, growth inhibition (Leukemia); conditions: K-562
PC-3 = test: panel of 60 human tumor cell lines, growth inhibition (Prostate Cancer); conditions: PC-3
U251 = test: panel of 60 human tumor cell lines, growth inhibition (CNS Cancer); conditions: U251
LOX IMVI = test: panel of 60 human tumor cell lines, growth inhibition (Melanoma)
HT29 = test: panel of 60 human tumor cell lines, growth inhibition (Colon Cancer); conditions: HT29
SR = test: panel of 60 human tumor cell lines, growth inhibition (Leukemia)
HOP-92 = test: panel of 60 human tumor cell lines, growth inhibition (Non-Small Cell Lung Cancer); conditions: HOP-92
SW-620 = test: panel of 60 human tumor cell lines, growth inhibition (Colon Cancer); conditions: SW-620
SF-295 = test: panel of 60 human tumor cell lines, growth inhibition (CNS Cancer); conditions: SF-295
SF-539 = test: as above; conditions: SF-539
COLO 205 = test: panel of 60 human tumor cell lines, growth inhibition (Colon Cancer); conditions: COLO 205
OVCAR-3 = test: panel of 60 human tumor cell lines, growth inhibition (Ovarian Cancer); conditions: OVCAR-3
MDA-MB-468 = test: panel of 60 human tumor cell lines, growth inhibition (Breast Cancer); conditions: MDA-MB-468
NCI-H322M = test: panel of 60 human tumor cell lines, growth inhibition (Non-Small Cell Lung Cancer)
MOLT-4 = test: panel of 60 human tumor cell lines, growth inhibition (Leukemia); conditions: MOLT-4

Structure (SMILES): C=C1C(=O)O[C@H]2[C@H]1CC/C(COC(=O)NCCO)=C\CC[C@@]1(C)O[C@@H]21 [JVM 2-50]
- Percent Growth (CAKI-1; Log10 Concentration −4.0): −65%
- Percent Growth (CAKI-1; Log10 Concentration −5.0): 48%
- Percent Growth (CAKI-1; Log10 Concentration −6.0): 87%
- Percent Growth (CAKI-1; Log10 Concentration −7.0): 91%
- Percent Growth (CAKI-1; Log10 Concentration −8.0): 89%
- GI50 (CAKI-1; NCI five dose): 8.99 µM
- TGI (CAKI-1; NCI five dose): 2.67E−5
- Percent Growth (UACC-257; Log10 Concentration −4.0): −73%
- Percent Growth (UACC-257; Log10 Concentration −5.0): 44%
- Percent Growth (UACC-257; Log10 Concentration −6.0): 65%
- Percent Growth (UACC-257; Log10 Concentration −7.0): 90%
- Percent Growth (UACC-257; Log10 Concentration −8.0): 95%
- GI50 (UACC-257; NCI five dose): 7 µM
- TGI (UACC-257; NCI five dose): 2.37E−5
- Percent Growth (HOP-62; Log10 Concentration −4.0): 9%
- Percent Growth (HOP-62; Log10 Concentration −5.0): 88%
- Percent Growth (HOP-62; Log10 Concentration −6.0): 92%
- Percent Growth (HOP-62; Log10 Concentration −7.0): 90%
- Percent Growth (HOP-62; Log10 Concentration −8.0): 88%
- GI50 (HOP-62; NCI five dose): 30.4 µM
- TGI (HOP-62; NCI five dose): >1.00E−4
- Percent Growth (K-562; Log10 Concentration −4.0): −25%
- Percent Growth (K-562; Log10 Concentration −5.0): 23%
- Percent Growth (K-562; Log10 Concentration −6.0): 100%
- Percent Growth (K-562; Log10 Concentration −7.0): 110%
- Percent Growth (K-562; Log10 Concentration −8.0): 119%
- GI50 (K-562; NCI five dose): 4.51 µM
- TGI (K-562; NCI five dose): 3.02E−5
- Percent Growth (PC-3; Log10 Concentration −4.0): −21%
- Percent Growth (PC-3; Log10 Concentration −5.0): 94%
- Percent Growth (PC-3; Log10 Concentration −6.0): 97%
- Percent Growth (PC-3; Log10 Concentration −7.0): 93%
- Percent Growth (PC-3; Log10 Concentration −8.0): 98%
- GI50 (PC-3; NCI five dose): 24.1 µM
- TGI (PC-3; NCI five dose): 6.57E−5
- Percent Growth (U251; Log10 Concentration −4.0): −26%
- Percent Growth (U251; Log10 Concentration −5.0): 94%
- Percent Growth (U251; Log10 Concentration −6.0): 91%
- Percent Growth (U251; Log10 Concentration −7.0): 95%
- Percent Growth (U251; Log10 Concentration −8.0): 97%
- GI50 (U251; NCI five dose): 23.3 µM
- TGI (U251; NCI five dose): 6.08E−5
- Percent Growth (LOX IMVI; Log10 Concentration −4.0): −88%
- Percent Growth (LOX IMVI; Log10 Concentration −5.0): 67%
- Percent Growth (LOX IMVI; Log10 Concentration −6.0): 98%
- Percent Growth (LOX IMVI; Log10 Concentration −7.0): 102%
- Percent Growth (LOX IMVI; Log10 Concentration −8.0): 100%
- GI50 (LOX IMVI; NCI five dose): 12.9 µM
- TGI (LOX IMVI; NCI five dose): 2.72E−5
- Percent Growth (HT29; Log10 Concentration −4.0): −47%
- Percent Growth (HT29; Log10 Concentration −5.0): 57%
- Percent Growth (HT29; Log10 Concentration −6.0): 109%
- Percent Growth (HT29; Log10 Concentration −7.0): 104%
- Percent Growth (HT29; Log10 Concentration −8.0): 99%
- GI50 (HT29; NCI five dose): 11.7 µM
- TGI (HT29; NCI five dose): 3.55E−5
- Percent Growth (SR; Log10 Concentration −4.0): −30%
- Percent Growth (SR; Log10 Concentration −5.0): 18%
- Percent Growth (SR; Log10 Concentration −6.0): 91%
- Percent Growth (SR; Log10 Concentration −7.0): 100%
- Percent Growth (SR; Log10 Concentration −8.0): 100%
- GI50 (SR; NCI five dose): 3.67 µM
- Percent Growth (HOP-92; Log10 Concentration −4.0): −88%
- Percent Growth (HOP-92; Log10 Concentration −5.0): 13%
- Percent Growth (HOP-92; Log10 Concentration −6.0): 94%
- Percent Growth (HOP-92; Log10 Concentration −7.0): 86%
- Percent Growth (HOP-92; Log10 Concentration −8.0): 90%
- GI50 (HOP-92; NCI five dose): 3.49 µM
- TGI (HOP-92; NCI five dose): 1.35E−5
- Percent Growth (SW-620; Log10 Concentration −4.0): −71%
- Percent Growth (SW-620; Log10 Concentration −5.0): 93%
- Percent Growth (SW-620; Log10 Concentration −6.0): 101%
- Percent Growth (SW-620; Log10 Concentration −7.0): 104%
- Percent Growth (SW-620; Log10 Concentration −8.0): 102%
- GI50 (SW-620; NCI five dose): 18.2 µM
- TGI (SW-620; NCI five dose): 3.67E−5
- Percent Growth (SF-295; Log10 Concentration −4.0): 44%
- Percent Growth (SF-295; Log10 Concentration −5.0): 92%
- Percent Growth (SF-295; Log10 Concentration −6.0): 95%
- Percent Growth (SF-295; Log10 Concentration −7.0): 90%
- Percent Growth (SF-295; Log10 Concentration −8.0): 88%
- GI50 (SF-295; NCI five dose): 73.7 µM
- TGI (SF-295; NCI five dose): 1.06E−4
- Percent Growth (SF-539; Log10 Concentration −4.0): −85%
- Percent Growth (SF-539; Log10 Concentration −5.0): 54%
- Percent Growth (SF-539; Log10 Concentration −6.0): 93%
- Percent Growth (SF-539; Log10 Concentration −7.0): 95%
- Percent Growth (SF-539; Log10 Concentration −8.0): 95%
- GI50 (SF-539; NCI five dose): 10.8 µM
- TGI (SF-539; NCI five dose): 2.46E−5
- Percent Growth (COLO 205; Log10 Concentration −4.0): −80%
- Percent Growth (COLO 205; Log10 Concentration −5.0): 21%
- Percent Growth (COLO 205; Log10 Concentration −6.0): 108%
- Percent Growth (COLO 205; Log10 Concentration −7.0): 106%
- Percent Growth (COLO 205; Log10 Concentration −8.0): 96%
- GI50 (COLO 205; NCI five dose): 4.87 µM
- TGI (COLO 205; NCI five dose): 1.62E−5
- Percent Growth (OVCAR-3; Log10 Concentration −4.0): −93%
- Percent Growth (OVCAR-3; Log10 Concentration −5.0): 40%
- Percent Growth (OVCAR-3; Log10 Concentration −6.0): 103%
- Percent Growth (OVCAR-3; Log10 Concentration −7.0): 106%
- Percent Growth (OVCAR-3; Log10 Concentration −8.0): 103%
- GI50 (OVCAR-3; NCI five dose): 6.27 µM
- TGI (OVCAR-3; NCI five dose): 1.99E−5
- Percent Growth (MDA-MB-468; Log10 Concentration −4.0): −67%
- Percent Growth (MDA-MB-468; Log10 Concentration −5.0): −12%
- Percent Growth (MDA-MB-468; Log10 Concentration −6.0): 67%
- Percent Growth (MDA-MB-468; Log10 Concentration −7.0): 91%
- Percent Growth (MDA-MB-468; Log10 Concentration −8.0): 98%
- GI50 (MDA-MB-468; NCI five dose): 1.64 µM
- TGI (MDA-MB-468; NCI five dose): 7.01E−6
- Percent Growth (NCI-H322M; Log10 Concentration −4.0): 32%
- Percent Growth (NCI-H322M; Log10 Concentration −5.0): 109%
- Percent Growth (NCI-H322M; Log10 Concentration −6.0): 105%
- Percent Growth (NCI-H322M; Log10 Concentration −7.0): 109%
- Percent Growth (NCI-H322M; Log10 Concentration −8.0): 105%
- GI50 (NCI-H322M; NCI five dose): 58.8 µM
- TGI (NCI-H322M; NCI five dose): >1.00E−4
- Percent Growth (MOLT-4; Log10 Concentration −4.0): −39%
- Percent Growth (MOLT-4; Log10 Concentration −5.0): 43%
- Percent Growth (MOLT-4; Log10 Concentration −6.0): 103%
- Percent Growth (MOLT-4; Log10 Concentration −7.0): 114%
- Percent Growth (MOLT-4; Log10 Concentration −8.0): 106%
- GI50 (MOLT-4; NCI five dose): 7.65 µM
